Results taken from PubChem BioAssay (NCI).
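Cultured in 96-well plates, cells were exposed to test compound for 48 hours across five concentrations. TGI denotes the concentration required for complete inhibition of growth.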

Tests used:
Test in all cases: NCI tumour cell line growth inhibition, 48 h
[1] = system: SK-OV-3 ovarian
[2] = system: HCC-2998 colon
[3] = system: SNB-75 CNS
[4] = system: A498 renal
[5] = system: RPMI-8226 leukemia
[6] = system: SNB-19 CNS
[7] = system: NCI-H226 lung
[8] = system: SNB-78 CNS
[9] = system: SK-MEL-5 melanoma
[10] = system: SF-539 CNS
[11] = system: CAKI-1 renal
[12] = system: SW-620 colon
[13] = system: OVCAR-5 ovarian
[14] = system: P388/ADR leukemia
[15] = system: CCRF-CEM leukemia
[16] = system: HOP-92 NSCLC
[17] = system: MCF7 breast
[18] = system: HCT-116 colon
[19] = system: HT29 colon
[20] = system: HOP-62 NSCLC
[21] = system: KM20L2 colon
[22] = system: SK-MEL-28 melanoma
[23] = system: SK-MEL-2 melanoma
[24] = system: XF 498 CNS
[25] = system: MOLT-4 leukemia
[26] = system: EKVX NSCLC
[27] = system: UACC-257 melanoma
[28] = system: NCI/ADR-RES ovarian
[29] = system: SF-295 CNS
[30] = system: HL-60(TB) leukemia
[31] = system: KM12 colon
[32] = system: U251 CNS
[33] = system: HOP-18 NSCLC
[34] = system: DMS 273 small cell lung
[35] = system: RXF 393 renal
[36] = system: OVCAR-3 ovarian
[37] = system: NCI-H460 lung
[38] = system: SN12C renal
[39] = system: SF-268 CNS
[40] = system: DLD-1 colon
[41] = system: OVCAR-8 ovarian
[42] = system: IGROV1 ovarian
[43] = system: NCI-H23 lung
[44] = system: NCI-H522 lung
[45] = system: SN12K1 renal
[46] = system: OVCAR-4 ovarian
[47] = system: MALME-3M melanoma
[48] = system: P388 leukemia
[49] = system: A549 NSCLC
[50] = system: LOX IMVI melanoma
[51] = system: UACC-62 melanoma
[52] = system: COLO 205 colon
[53] = system: K-562 leukemia
[54] = system: M19-MEL melanoma
[55] = system: UO-31 renal
[56] = system: HCT-15 colon
[57] = system: DMS 114 small cell lung

C[C@H]1COC(c2ccccn2)=N1
TGI [1]: > 100000 nM | TGI [2]: > 100000 nM | TGI [3]: > 100000 nM | TGI [4]: > 100000 nM | TGI [5]: > 100000 nM | TGI [6]: > 100000 nM | TGI [7]: > 100000 nM | TGI [8]: > 100000 nM | TGI [9]: > 100000 nM | TGI [10]: > 100000 nM | TGI [11]: > 100000 nM | TGI [12]: > 100000 nM | TGI [13]: > 100000 nM | TGI [14]: > 100000 nM | TGI [15]: > 100000 nM | TGI [16]: > 100000 nM | TGI [17]: > 100000 nM | TGI [18]: > 100000 nM | TGI [19]: > 100000 nM | TGI [20]: > 100000 nM | TGI [21]: > 100000 nM | TGI [22]: > 100000 nM | TGI [23]: > 100000 nM | TGI [24]: > 100000 nM | TGI [25]: > 100000 nM | TGI [26]: > 100000 nM | TGI [27]: > 100000 nM | TGI [28]: > 100000 nM | TGI [29]: > 100000 nM | TGI [30]: > 100000 nM | TGI [31]: > 100000 nM | TGI [32]: > 100000 nM | TGI [33]: > 100000 nM | TGI [34]: > 100000 nM | TGI [35]: > 100000 nM | TGI [36]: > 100000 nM | TGI [37]: > 100000 nM | TGI [38]: > 100000 nM | TGI [39]: > 100000 nM | TGI [40]: > 100000 nM | TGI [41]: > 100000 nM | TGI [42]: > 100000 nM | TGI [43]: > 100000 nM | TGI [44]: > 100000 nM | TGI [45]: > 100000 nM | TGI [46]: > 100000 nM | TGI [47]: > 100000 nM | TGI [48]: > 100000 nM | TGI [49]: > 100000 nM | TGI [50]: > 100000 nM | TGI [51]: > 100000 nM | TGI [52]: > 100000 nM | TGI [53]: > 100000 nM | TGI [54]: > 100000 nM | TGI [55]: > 100000 nM | TGI [56]: > 100000 nM

CC[C@@]1(O)C[C@H](OC2CC(N(C)C)C(OC3CC(O)C(OC4CC(O)C(O)C(C)O4)C(C)O3)C(C)O2)c2c(cc3c(c2O)C(=O)c2c(O)ccc(O)c2C3=O)[C@H]1C(=O)OC (stereo partly drawn)
TGI [1]: 3040 nM | TGI [2]: 662 nM | TGI [3]: 390 nM | TGI [4]: 89.1 nM | TGI [57]: 959 nM | TGI [5]: 385 nM | TGI [6]: 4300 nM | TGI [7]: 203 nM | TGI [8]: 2100 nM | TGI [9]: 135 nM | TGI [10]: 341 nM | TGI [11]: 142 nM | TGI [12]: 1940 nM | TGI [13]: 3100 nM | TGI [14]: 2230 nM | TGI [15]: 1810 nM | TGI [16]: 867 nM | TGI [17]: 959 nM | TGI [18]: 118 nM | TGI [19]: 871 nM | TGI [20]: 500 nM | TGI [21]: 2620 nM | TGI [22]: 293 nM | TGI [23]: 124 nM | TGI [24]: 225 nM | TGI [25]: 103 nM | TGI [26]: 982 nM | TGI [27]: 184 nM | TGI [28]: 10200 nM | TGI [29]: 654 nM | TGI [30]: 1370 nM | TGI [31]: 3030 nM | TGI [32]: 3180 nM | TGI [33]: 1320 nM | TGI [34]: 482 nM | TGI [35]: 112 nM | TGI [36]: 347 nM | TGI [37]: 103 nM | TGI [38]: 2090 nM | TGI [39]: 1490 nM | TGI [40]: 3590 nM | TGI [41]: 1150 nM | TGI [42]: 3840 nM | TGI [43]: 314 nM | TGI [44]: 153 nM | TGI [45]: 67.8 nM | TGI [46]: 564 nM | TGI [47]: 196 nM | TGI [48]: 89.2 nM | TGI [49]: 19800 nM | TGI [50]: 3670 nM | TGI [51]: 106 nM | TGI [52]: 390 nM | TGI [53]: 1700 nM | TGI [54]: 210 nM | TGI [55]: 1220 nM | TGI [56]: 2660 nM
